# Reference: patent US20040242452A1, “Perfume composition” (priority 2001, published 2004)
# “Also recorded” adds a separate entry of the source.
# Key:
# [1] = disclosed in Japanese Patent Application Laid-Open (kokai) No. 6-172781; also through inhalation of vaporized perfume; cited from earlier work
# healthy female panelists [2] = test: CNV test (contingent negative variation) with inhaled scent samples; format: in vivo, human; conditions: for psycho-sedative / psycho-stimulative effect by measured CNV values (FIG. 1): scent inhaled about 10 cm under the nose, five healthy female panelists, CNV area relative to blank (100%): 100% or less sedative, 100% or more arousal
# From the text: The psycho-sedative effect was investigated by measuring negative changes in electric potential, so-called contingent negative variation (CNV). CNV is known to be a slow cerebral potential variation which relates to psychological processes such as alertness, expectation, and anticipation and to changes in the level of consciousness.
# In order to screen out a compound having a psycho-sedative or psycho-stimulative effect, a light signal which indicates start of movement is emitted two seconds after stimulation with a warning sound, and a panelist is required to react (i.e., push a button) simultaneously with the recognition of the light. During repetition of a series of such processes, an aromatic product sample is arranged about 10 cm under the nose of the panelist so that its scent can be acknowledged with breathing. An electrode for the measurement of CNV is set on the forehead of the panelist so as to record electric potential between the forehead and an earlobe. It has already been reported that the CNV amplitude increases when caffeine having an arousal effect is perorally administered to humans, whereas the amplitude decreases when nitrazepam having a sedative effect is allowed to be […].
# In this test, the psycho-sedative effect was evaluated by use of the percentage as an index. A relative area of 100% or less indicates a sedative effect, and a relative area of 100% or more indicates an arousal effect.
# Five healthy female panelists were subjected to the aforementioned CNV test.
# Five healthy female adult panelists were subjected to the aforementioned CNV test.
# (B) The following samples were prepared: a 1% ethanol solution of perilla aldehyde (commercial product); a 1% ethanol solution of perilla alcohol (commercial product); a 1% ethanol solution of DMMB (commercial product); and a 1% ethanol solution of lemon oil (commercial product). Five healthy female adult panelists were subjected to the aforementioned CNV test.
# The following samples were prepared: a 0.05% ethanol solution of solo perilla aldehyde (1); a 0.05% ethanol solution of solo perilla alcohol (2); and an ethanol solution containing perilla aldehyde (0.05%) and perilla alcohol (0.05%) (3). Five healthy female adult panelists were subjected to the aforementioned CNV test.
# healthy female panelists [3] = conditions: already reported; humans; caffeine perorally administered, nitrazepam allowed to be inhaled; cited from earlier work
# [4] = 1% ethanol solution, five healthy female adult panelists, CNV area relative to blank (100%)
Compound,psycho-sedative / psycho-stimulative effect by measured CNV values (FIG. 1) (healthy female panelists [2]; 1% ethanol solution),other results
"COc1cc(C)cc(OC)c1 [DMMB, 1,3-dimethoxy-5-methylbenzene, reference compound]",,sedative effect [1]: has a sedative effect; psycho-stimulative / psycho-sedative effect by measured CNV values (FIG. 2) (healthy female panelists [2]; [4]): psycho-sedative effect of DMMB was confirmed
CC(=O)C1(C)CC2=C(CCCC2(C)C)CC1C (centres unmarked) [Iso E Super],psycho-sedative effect similar to that of DMMB,
"CC/C=C\CCOC(=O)c1ccccc1O [Z-3-hexenyl salicylate, cis-3-hexenyl salicylate]",psycho-sedative effect similar to that of DMMB,
"CC=Cc1ccc(OC(C)=O)c(OC)c1 [acetyl isoeugenol, methoxy-4-acetoxypropenylbenzene]",psycho-sedative effect similar to that of DMMB,
Cn1c(=O)c2c(ncn2C)n(C)c1=O [caffeine],,CNV amplitude change (healthy female panelists [3]): increases
CC1=CCC2C(=O)C1C2(C)C (centres unmarked) [chrysanthenone],psycho-sedative effect similar to that of DMMB,
CC(C)=CCCC(C)CCO (centres unmarked) [citronellol],psycho-sedative effect similar to that of DMMB,
"CC(C)c1ccc(CO)cc1 [cuminyl alcohol, 4-isopropylbenzyl alcohol]",,psycho-stimulative / psycho-sedative effect by measured CNV values (FIG. 2) (healthy female panelists [2]; [4]): psycho-stimulative effect similar to that of limone oil
"CCCCCCCCCCCCCC(=O)OCC [ethyl myristate, ethyl tetradecanoate]",,psycho-stimulative / psycho-sedative effect by measured CNV values (FIG. 2) (healthy female panelists [2]; [4]): psycho-stimulative effect similar to that of limone oil
CC(C)=CCC/C(C)=C/CO [geraniol],psycho-sedative effect similar to that of DMMB,
CC(=O)OC/C=C(\C)CCC=C(C)C [geranyl acetate],psycho-sedative effect similar to that of DMMB,
"CCCCCC1C(=O)CCC1CC(=O)OC (centres unmarked) [hedione, methyl dihydrojasmonate]",psycho-sedative effect similar to that of DMMB,
CC(C=O)Cc1ccc2c(c1)OCO2 (centres unmarked) [helional],psycho-sedative effect similar to that of DMMB,
"C/C=C(/C)C(=O)OCCC(C)C [isoamyl angelate, isoamyl(Z)-2-methyl-2-butenoate]",,psycho-stimulative / psycho-sedative effect by measured CNV values (FIG. 2) (healthy female panelists [2]; [4]): psycho-stimulative effect similar to that of limone oil
CC(C=O)Cc1ccc(C(C)(C)C)cc1 (centres unmarked) [lilial],psycho-sedative effect similar to that of DMMB,
C=C(C)[C@H]1CC=C(C)CC1 [limonene],psycho-sedative effect similar to that of DMMB,
C=CC(C)(O)CCC=C(C)C (centres unmarked) [linalool],psycho-sedative effect similar to that of DMMB,

Compound,psycho-sedative / psycho-stimulative effect by measured CNV values (FIG. 1) (healthy female panelists [2]; 1% ethanol solution),other results
C=CC(C)(CCC=C(C)C)OC(C)=O (centres unmarked) [linalyl acetate],psycho-sedative effect similar to that of DMMB,
CC(C)(O)CCCC1=CCC(C=O)CC1 (centres unmarked) [lyral],psycho-sedative effect similar to that of DMMB,
"CC1=C2CCC(C)CC2OC1=O (centres unmarked) [menthalactone, 3,6-dimethyl-5,6,7,7a-tetrahydro-2(4H)-benzofuranone]",,psycho-stimulative / psycho-sedative effect by measured CNV values (FIG. 2) (healthy female panelists [2]; [4]): psycho-stimulative effect similar to that of limone oil
COC(=O)c1ccc(OC)cc1 [methyl anisate],psycho-sedative effect similar to that of DMMB,
CC(C)=CCC/C(C)=C\CO [nerol],psycho-sedative effect similar to that of DMMB,
O=C1CN=C(c2ccccc2)c2cc([N+](=O)[O-])ccc2N1 [nitrazepam],,CNV amplitude change (healthy female panelists [3]): decreases
C=CC(C)=CCC=C(C)C [ocimene],psycho-sedative effect similar to that of DMMB,
Cc1ccc(CC=O)cc1 [p-methylphenylacetaldehyde],psycho-sedative effect similar to that of DMMB,
"C=C(C)C1CC=C(C=O)CC1 (centres unmarked) [perilla aldehyde, dihydrocuminyl aldehyde]",,"synergistic psycho-stimulative effect by measured CNV values (FIG. 4) (healthy female panelists [2]; 0.05% ethanol solution of each component, solo or combined, five healthy female adult panelists): acknowledged to have a psycho-stimulative effect; psycho-stimulative effect by measured CNV values (FIG. 3) (healthy female panelists [2]; [4]): acknowledged to have a psycho-stimulative effect; also recorded: remarkably strong psycho-stimulative effect as compared with lemon oil"
"C/C=C(/C)C(=O)OCCc1ccccc1 [phenylethyl angelate, 2-phenylethyl(Z)-2-methyl-2-butenoate]",,psycho-stimulative / psycho-sedative effect by measured CNV values (FIG. 2) (healthy female panelists [2]; [4]): psycho-stimulative effect similar to that of limone oil
"CC1=CC(=O)C(C(C)C)CC1 (centres unmarked) [piperitone, p-menth-1-en-3-one]",,psycho-stimulative / psycho-sedative effect by measured CNV values (FIG. 2) (healthy female panelists [2]; [4]): psycho-stimulative effect similar to that of limone oil
OCCc1ccccc1 [β-phenylethyl alcohol],psycho-sedative effect similar to that of DMMB,
CCC1CCC(=O)O1 (centres unmarked) [γ-hexalactone],psycho-sedative effect similar to that of DMMB,
CC(=O)/C(C)=C/C1C(C)=CCCC1(C)C (centres unmarked) [γ-methyl ionone],psycho-sedative effect similar to that of DMMB,
CCCCCC1CCC(=O)O1 (centres unmarked) [γ-nonalactone],psycho-sedative effect similar to that of DMMB,
terpinyl butyrate,psycho-sedative effect similar to that of DMMB,
